The text below walks through data of ChEMBL document CHEMBL1126813, “Phenyl-substituted prostaglandins: potent and selective antiglaucoma agents” (J Med Chem, 1993).

pEC50: −log10 of the molar value.

One test relates to Felis catus. The test is described as follows: Maximum irritation of cat eyes after topical administration of 3 ug of the compound. It is filed as functional.
In turn, `CCCCC[C@H](O)CC[C@@H]1[C@@H](C/C=C\CCCC(=O)OC(C)C)[C@@H](O)C[C@H]1O` registered an Irritation of eyes of 2.5 arbitrary units.
The same measure, in the same setting: next, `CCCCC[C@@H](O)CC[C@@H]1[C@@H](C/C=C\CCCC(=O)OC(C)C)[C@@H](O)C[C@H]1O`: 2.3 arbitrary units; `CC(C)OC(=O)CCC/C=C\C[C@@H]1[C@@H](CC[C@H](O)CCc2ccccc2)[C@H](O)C[C@@H]1O`: 0 arbitrary units; `CC(C)OC(=O)CCC/C=C\C[C@@H]1[C@@H](CC[C@@H](O)CCc2ccccc2)[C@H](O)C[C@@H]1O` [LATANOPROST]: 0 arbitrary units.

The species named for the next test is Felis catus. The test is described as follows: Compound concentration which had a contractile effect on iris sphincter muscle of cats. It is filed as functional.
One may read the pEC50 as the EC50 on a negative log10 scale, so that one unit is a factor of ten. Molecule `O=C(O)CCC/C=C\C[C@@H]1[C@@H](CC[C@@H](O)CCc2ccccc2)[C@H](O)C[C@@H]1O` [LATANOPROST ACID] had a pEC50 of 9.15.

The next test concerns Felis catus. The test is described as follows: Maximum irritation of cat eyes after topical administration of 5 ug of the compound. In kind it is functional.
`CC(C)OC(=O)CCC/C=C\C[C@@H]1[C@@H](/C=C/[C@@H](O)CCc2ccccc2)[C@H](O)C[C@@H]1O` gave an Irritation of eyes of 0.2 arbitrary units.
`CC(C)OC(=O)CCC/C=C\C[C@@H]1[C@@H](/C=C/[C@H](O)CCc2ccccc2)[C@H](O)C[C@@H]1O`: the Irritation of eyes came to 0 arbitrary units.

For the next test, the system named is Monkey. The test is described as follows: Maximum reduction of the intraocular pressure in normotensive monkeys after topical administration of 3 ug of the compound. It is filed as functional, Cercopithecidae, Eye.
With `CC(C)OC(=O)CCC/C=C\C[C@@H]1[C@@H](/C=C/[C@@H](O)CCc2ccccc2)[C@H](O)C[C@@H]1O`, the “Reduction of IOP” value came to 2.9 mmHg.
With `CC(C)OC(=O)CCC/C=C\C[C@@H]1[C@@H](/C=C/[C@H](O)CCc2ccccc2)[C@H](O)C[C@@H]1O`, the “Reduction of IOP” value is given as 1.9 mmHg.
On to `CCCCC[C@H](O)CC[C@@H]1[C@@H](C/C=C\CCCC(=O)OC(C)C)[C@@H](O)C[C@H]1O`, for which the “Reduction of IOP” value is recorded as 2.5 mmHg.
The same measure, in the same setting: next, `CCCCC[C@@H](O)CC[C@@H]1[C@@H](C/C=C\CCCC(=O)OC(C)C)[C@@H](O)C[C@H]1O`: 0.7 mmHg; `CC(C)OC(=O)CCC/C=C\C[C@@H]1[C@@H](CC[C@H](O)CCc2ccccc2)[C@H](O)C[C@@H]1O`: 1 mmHg.
`CC(C)OC(=O)CCC/C=C\C[C@@H]1[C@@H](CC[C@@H](O)CCc2ccccc2)[C@H](O)C[C@@H]1O` [LATANOPROST]: the “Reduction of IOP” value is listed as 2.6 mmHg.
